The subject of assay [1] is inflammatory responses elicited by topically applied phorbol myristate acetate (PMA) or topically applied arachidonic acid (AA). Nature of the assay: Topical mouse ear assay (TME), edema by wet weight. The format is in vivo, mice. The following applies: PMA or AA not specified. As to the method: The topical mouse ear assay (TME) is the method by which the novel compounds of the present invention are evaluated for its effect on inflammatory responses elicited by topically applied phorbol myristate acetate (PMA) or topically applied arachidonic acid (AA). The inflammatory responses may be in the form of edema (measured by wet weight); vascular permeability (measured by ^125 I-BSA accumulation); or PMN infiltration (measured by myeloperoxidase activity).
Method: The right ears of mice (5 mice per group) were treated topically with either […] or 1000 μg AA alone or with the test compound in 25 μl of vehicle. The vehicle was water/pyridine/acetone (1:2:97). A control group of mice received the vehicle only. The mice were allowed food and water ad libitum during the treatment period; 2 hours for AA and 4 hours for PMA. The mice were sacrificed by cervical dislocation and a 6 mm diameter disc of tissue punched from both the treated and untreated ears. The tissue biopsies were immediately weighed and the weight increase of the treated ear relative to the weight of the untreated ear determined.
For the determination of vascular permeability, […] ^125 I-bovine serum albumin (^125 I-BSA) was administered in 0.5 ml phosphate buffered saline 15 min prior to the topical application. At the termination of the experiment, the amount of radioactivity in both the treated and untreated ear biopsies was determined and the increased amount of radioactivity in the treated tissue relative to the amount of radioactive in the untreated tissue determined.
As a measure of PMN infiltration, the amount of myeloperoxidase (MPO) activity in the same tissues was determined. The tissue biopsies were homogenized into 1 ml 0.5% hexadecyltrimethylammonium bromide and centrifuged for 45 min. at 1200×g. Aliquots 40 μl, of the supernatant phases were assayed for MPO activity by a colorimetric method devised by H. Dougherty for automated Titertek analysis. The MPO activity is expressed as the OD450 of the treated ear homogenate minus the OD450 of the non-treated ear homogenate.
All of the data are expressed as the mean ±SEM, N=5 mice/group.

For assay [2] the test system is unchanged. The following applies: previously established; cited from earlier work.

On to `CC(=O)c1ccc(NCc2cc3c(cc2O)CCO3)cc1` [A, 5-Hydroxy-6-(4-acetylphenyl)aminomethyl-2,3-dihydrobenzofuran], for which the “Edema (% inhibition)” value in assay [1] (Dosage 50 μg) is on record as 44%; in assay [1] (Dosage 100 μg), 45%; in assay [1] (Dosage 200 μg), 60%; in assay [1] (Dosage 400 μg), 76%.
For the molecule `COc1ccc2c(c1)c(CC(=O)O)c(C)n2C(=O)c1ccc(Cl)cc1` [Indomethacin, indomethacin], the “Edema (% inhibition)” value came to 24% in assay [1] (Dosage 50 μg), 42% in assay [1] (Dosage 100 μg), 46% in assay [1] (Dosage 200 μg) and 85% in assay [1] (Dosage 400 μg). Besides, the “activity in the topical mouse ear assay” value in assay [2] was “active”.
On to `C[C@@H]1C[C@H]2[C@@H]3CCC4=CC(=O)C=C[C@]4(C)[C@@]3(F)[C@@H](O)C[C@]2(C)[C@@]1(O)C(=O)CO` [dexamethasone], for which, in assay [2], the “activity in the topical mouse ear assay” value is on record as “active”.

The values above are taken from US4563476A, “Substituted 5-hydroxy-2,3-dihydrobenzofurans and analogs thereof useful as anti-inflammatory agents” (Merck & Co., Inc., priority 1983, dated 1986).
